# Molecular target: T1, ERbeta Receptor (Homo sapiens, UniProt Q92731)
# T1 construct: purchased Pan Vera
# Experiment: Competition ER binding assay (3H-Estradiol), ER beta
# Conditions: ratio of Ki ER alpha to Ki ER beta; Ki from IC50 by Cheng-Prusoff equation
# Method: The competition ER binding assay was run in a buffer containing 50 mM N-[2-hydroxyethyl]piperazine-N′-[2-ethanesulfonic acid (Hepes) pH 7.5, 1.5 mM EDTA, 150 mM NaCl, 10% glycerol, 1 mg/mL ovalbumin, 5 mM DTT, 0.025 μCi per well of ^3H-Estradiol (NEN #NET517 at 118 Ci/mmol, 1 mCi/mL), and 10 ng/well ERAlpha or ERbeta Receptor (Pan Vera). Competing compounds were added at 10 different concentrations. Non-specific binding was determined in the presence of 1 μM of E2 (17-β Estradiol, Sigma, St. Louis, Mo.). The binding reaction (140 μL) was incubated for 4 hours at room temperature, then 70 μL of cold dextran coated charcoal (DCC) buffer was added to each reaction (DCC buffer was prepared by adding 0.75 g of charcoal [Sigma] and 0.25 g of dextran [Pharmacia] per 50 mL of assay buffer). The incubation plates were mixed for 8 minutes on an orbital shaker at 4° C. and then centrifuged at 3,000 rpm for 10 minutes at 4° C. An aliquot of 120 μl of the mix was transferred to another 96-well, white flat bottom plate (Costar) and 175 μl of Wallac Optiphase Hisafe 3 scintillation fluid was added to each well. The plates were sealed and then shaken vigorously on an orbital shaker. After an incubation of 2.5 hrs, the radioactivity was counted in a Wallac Microbeta counter. […] The Kd for ^3H-Estradiol was determined by saturation binding to ERα and ERβ receptors. The IC50 values for compounds were converted to Ki values using the Cheng-Prusoff equation and the Kd values were determined by saturation binding assay.
# T1 sequence (Q92731 whole entry): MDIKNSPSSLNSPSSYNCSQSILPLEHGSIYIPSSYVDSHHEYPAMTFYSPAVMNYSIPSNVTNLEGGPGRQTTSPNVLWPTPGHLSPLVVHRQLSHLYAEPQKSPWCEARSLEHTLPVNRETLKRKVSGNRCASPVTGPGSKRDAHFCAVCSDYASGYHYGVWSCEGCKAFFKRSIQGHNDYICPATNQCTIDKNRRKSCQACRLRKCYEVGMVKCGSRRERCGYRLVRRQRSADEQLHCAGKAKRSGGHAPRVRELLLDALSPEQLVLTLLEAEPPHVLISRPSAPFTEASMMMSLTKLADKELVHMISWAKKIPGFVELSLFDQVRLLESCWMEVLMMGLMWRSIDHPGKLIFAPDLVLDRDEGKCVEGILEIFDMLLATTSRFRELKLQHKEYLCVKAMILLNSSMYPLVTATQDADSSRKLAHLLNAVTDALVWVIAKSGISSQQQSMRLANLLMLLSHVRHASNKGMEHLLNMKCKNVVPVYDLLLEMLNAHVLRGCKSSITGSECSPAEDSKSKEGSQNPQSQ
row,SMILES,Ki (nM) ER alpha/Ki (nM) ER beta
1,"Oc1ccc([C@H]2Oc3ccc(C(F)(F)F)cc3[C@H]3CCC[C@H]32)cc1 (racemic) [Example 2, (^+)-2-(4-hydroxyphenyl)-6-trifluoromethyl-cyclopentyl[c]3,4-dihydro-2H-1-benzopyran]",1.4
2,"Cc1cc([C@H]2Oc3ccc(O)cc3[C@H]3CCC[C@H]32)ccc1O (racemic) [Example 13, (^+)-2-(4-hydroxy-3-methylphenyl)-6-hydroxy-cyclopentyl[c]3,4-dihydro-2H-1-benzopyran]",4.4
3,"COc1ccc2c(c1)[C@H]1CCC[C@H]1[C@@H](c1ccc(O)cc1)O2 (racemic) [Example 12, (^+)-2-(4-hydroxyphenyl)-6-methoxy-cyclopentyl[c]3,4-dihydro-2H-1-benzopyran]",2.3
4,"Cc1cc2c(cc1O)[C@H]1CCC[C@H]1[C@@H](c1ccc(O)cc1)O2 (racemic) [Example 19, (^+)-2-(4-hydroxyphenyl)-6-hydroxy-7-methyl-cyclopentyl[c]3,4-dihydro-2H-1-benzopyran]",2.0
5,"Oc1ccc([C@H]2Oc3ccc(F)cc3[C@H]3CCC[C@H]32)cc1 (racemic) [Example 4, (^+)-2-(4-hydroxyphenyl)-6-fluoro-cyclopentyl[c]3,4-dihydro-2H-1-benzopyran]",4.7
6,"CC(C)[C@]1(c2ccc(O)cc2)Oc2ccc(O)cc2[C@@H]2CCC[C@@H]21 [Example 30, (+)-2-(1-methylethyl)-2-(4-hydroxyphenyl)-6-hydroxy-cyclopentyl[c]3,4-dihydro-2H-1-benzopyran]",1.4
7,"Oc1ccc([C@@H]2Oc3ccc(O)cc3[C@H]3CCC[C@H]32)cc1 (racemic) [Example 16, (^+)-2-(4-hydroxyphenyl)-6-hydroxy-cyclopentyl[c]3,4-dihydro-2H-1-benzopyran]",1.4
8,"C[C@]1(c2ccc(O)cc2)Oc2ccc(O)cc2[C@@H]2CCC[C@@H]21 [Example 28, (^+)-2-methyl-2-(4-hydroxyphenyl)-6-hydroxy-cyclopentyl[c]3,4-dihydro-2H-1-benzopyran]",4.6
9,"COc1cc(O)cc2c1O[C@H](c1ccc(O)cc1)[C@@H]1CCC[C@H]21 (racemic) [Example 9, (^+)-2-(4-hydroxyphenyl)-6-hydroxy-8-methoxy-cyclopentyl[c]3,4-dihydro-2H-1-benzopyran]",13
10,"Cc1cc(O)cc2c1O[C@H](c1ccc(O)cc1)[C@@H]1CCC[C@H]21 (racemic) [Example 7, (^+)-2-(4-hydroxyphenyl)-6-hydroxy-8-meth 1-cyclopentyl[c]3,4-dihydro-2H-1-benzopyran]",5.1
11,"Cc1cc(O)ccc1[C@H]1Oc2ccc(O)cc2[C@H]2CCC[C@H]21 (racemic) [Example 15, (^+)-2-(2-methyl-4-hydroxyphenyl)-6-hydroxy-cyclopentyl[c]3,4-dihydro-2H-1-benzopyran]",11
12,"Cc1cc([C@@H]2Oc3ccc(O)cc3[C@H]3CCC[C@H]32)ccc1O (racemic) [Example 14, (^+)-2-(4-hydroxy-3-methylphenyl)-6-hydroxy-cyclopentyl[c]3,4-dihydro-2H-1-benzopyran]",2.6
13,"Oc1ccc([C@H]2Oc3ccc(O)cc3[C@H]3CCC[C@H]32)cc1 (racemic) [Example 1, (^+)-2-(4-hydroxyphenyl)-6-hydroxy-cyclopentyl[c]3,4-dihydro-2H-1-benzopyran]",8.0
14,"CC[C@]1(c2ccc(O)cc2)Oc2ccc(O)cc2[C@@H]2CCC[C@@H]21 [Example 29, (^+)-2-ethyl-2-(4-hydroxyphenyl)-6-hydroxy-cyclopentyl[c]3,4-dihydro-2H-1-benzopyran]",1.3
15,"CCC1(CC)CC[C@H]2[C@@H](c3ccc(O)cc3)Oc3ccc(O)cc3[C@H]21 (racemic) [Example 11, (^+)-2-(4-hydroxyphenyl)-6-hydroxy-11,11-diethyl-cyclopentyl[c]3,4-dihydro-2H-1-benzopyran]",1.6
16,"CC1(C)CC[C@H]2[C@@H](c3ccc(O)cc3)Oc3ccc(O)cc3[C@H]21 (racemic) [Example 10, (^+)-2-(4-hydroxyphenyl)-6-hydroxy-11,11-dimethyl-cyclopentyl[c]3,4-dihydro-2H-1-benzopyran]",2.5
17,"Cc1cc2c(cc1O)[C@H]1CCC[C@H]1[C@H](c1ccc(O)cc1)O2 (racemic) [Example 20, (^+)-2-(4-hydroxyphenyl)-6-hydroxy-7-methyl-cyclopentyl[c]3,4-dihydro-2H-1-benzopyran]",0.6
18,"Cc1ccc2c(c1)[C@H]1CCC[C@H]1[C@@H](c1ccc(O)cc1)O2 (racemic) [Example 3, (^+)-2-(4-hydroxyphenyl)-6-methyl-cyclopentyl[c]3,4-dihydro-2H-1-benzopyran]",1.2

# Reference: patent publication US7217734B2, “Substituted benzopyrans as selective estrogen receptor-beta agonists” (Eli Lilly and Company, priority 2001, dated 2007)
